Patent US20030104507A1, “Method for detection of ATP” (priority 2001, published 2003)

What was measured:
[1] = test system: LucPpe2m146; assay: Duration of luminescence (signal stability) and effects of media and sera, DTAB, ± pyrophosphate; assay type: biochemical, Photuris pennsylvanica; details: 10 μM sodium pyrophosphate
Procedure: In some embodiments, the compositions of the invention were added to intact cells to lyse them, and then ATP detected. In other embodiments, conditioned culture media were themselves assayed for ATP. However, the various components of media, such as buffers, sugars, amino acids, pH indicators, salts, etc., as well as the various factors found in serum (equine, bovine, etc.) may inhibit luciferase activity.
The luciferase-luciferin reaction was initiated by combining 100 μl of the reagent composition composition with 100 μl cell media with serum, varying final concentrations of DTAB (as indicated below in Table Q) and 1.0 μM ATP was added to each reaction plus or minus 10 μM sodium pyrophosphate in wells of a 96-well microtiter luminometer plate; each experimental condition was prepared in triplicate. At various times after initiating the reaction, rlu values were recorded using an Orion microplate luminometer (Berthold Detection Systems; Pforzheim, Germany).

[2] = test system: ATPase activity endogenous to L929 cell lysate; assay: Detergent inhibition of ATPase endogenous to L929 cell lysate (ATP remaining by luciferase luminescence, 22° C.); assay type: biochemical; set-up: key to Relative ATPase Activity, slope det/slope lysate: slope with detergent / slope without; ≥1.0 = 100% activity, 0.5 = 50%
Procedure: Three separate detergents in each of four detergent classes were tested: anionic [SDS (Sodium dodecyl sulfate), Bioterge (an α olefin sulfate), and sodium deoxycholate], nonionic [TRITON X-100, BigCHAP (N,N-bis(3-D-Gluconamidopropyl)cholamide) and THESIT (polyethylene glycol 400 dodecyl ether, Fluka, #88315)], cationic [BDDABr (Benzyldimethyldodecylammonium bromide), CTAB (Cetyltrimethylammonium bromide), and DTAB (dodecyltrimethylammonium bromide)] and zwitterionic [CHAPS (3[(3-Cholamidopropyl)dimethylammonio]propanesulfonic acid), CHAPSO (3-([3-Cholamidopropyl]dimethylammonio)-2-hydroxy-1-propanesulfonate), and Sulfobetaine 3-10 ([…]-N,N-dimethyl-3-ammonio-1-propanesulfonate)]. Detergents were obtained from Sigma, Fluka and Aldrich.
L929 cells (ATCC CCL-1; 1.5×10^5 cells/ml) in F12/DMEM (Hyclone, SH30023) containing 10% horse serum (Hyclone, SH30074) were frozen and thawed for four cycles to create a cell lysate. Then 50 μl of stock detergent solutions [10%, 5.0%, 1.0%, and 0.5% (w/v)] were separately added to 450 μl cell lysate, creating a final detergent concentration in the cell lysate sample of 1.0%, 0.5%, 0.1%, and 0.05%, respectively (these percentage values are those used in Tables D and E herein below). Control samples contained either lysate only or 1.0 μM ATP in 15 mM HEPES buffer (pH 7.5). All samples were incubated at 22° C. (room temperature) for the duration of the experiment.
At various timepoints, 20 μl from each sample/detergent mixture was added to a 96-well luminometer plate in triplicate, and then 100 μl of a solution (“luciferase-luciferin” or “L/L reagent”) containing 25 mM HEPES buffer (pH 7.5), 40 μg luciferase enzyme LucPpe2m146 (Promega, E140), 100 μM luciferin (Promega), and 10 mM MgSO4 was added to each well. The L/L reagent was stored at 4° C. for the duration of the experiment and then allowed to reach ambient temperature just before assaying. After mixing the contents of the plate, light output was measured with a Dynex MLX microtiter plate luminometer (Chantilly, Va.), 0.5 second reads per well with the first measurement taken five minutes after the detergent solution was combined with the sample. The average relative light units and the timepoint at which it was measured (rlu; Table D) and percent of remaining luciferase activity at the timepoint (Table E) are reported; controls were run with each set of experimental conditions as indicated. The cationic and anionic detergents were assayed on one day with one set of controls. The zwitterionic and nonionic detergents were assayed on a separate day with a separate set of controls. The DTAB at 0.5% was assayed on both days (1 and 2).
The experiment was performed as detailed in Example 1. The average relative light unit values and the percent of ATP remaining values are listed below in Table F and G respectively.
The log of the percent of ATP remaining after original timepoint values from Table E and Table G were plotted on the y axis against time (in minutes) on the x axis. The slope of the line generated by these values in the presence of detergent was divided by the slope of the line generated by the values in the absence of detergent (lysate control) resulting in the Relative ATPase Activity values listed below in Table H.
A relative activity value of 1.0 or greater indicates 100% cellular ATPase activity at the concentration of detergent tested. A relative activity value of 0.5 indicates a two-fold (or 50%) decrease in the level of cellular ATPase activity at the concentration of detergent tested when compared to the ATPase activity level in the absence of the detergent. A relative activity value of 0.2 indicates a five-fold (or 80%) decrease in the level of cellular ATPase activity at the concentration of detergent tested when compared to the ATPase activity level in the absence of the detergent.

O=P([O-])([O-])OP(=O)([O-])[O-].[Na+].[Na+].[Na+].[Na+] [Ppi, sodium pyrophosphate]
decrease of luminescence [1]: ten-fold

TRITON X-100
Average Relative Light Unit Values ([2]; 0.05% detergent, 5 min): 6160.71 rlu | Percent ATP Remaining ([2]; 0.05% detergent, 5 min): 100% | Average Relative Light Unit Values ([2]; 0.05% detergent, 75 min): 1964.17 rlu | Percent ATP Remaining ([2]; 0.05% detergent, 75 min): 31.9% | Average Relative Light Unit Values ([2]; 0.05% detergent, 169 min): 822.48 rlu | Percent ATP Remaining ([2]; 0.05% detergent, 169 min): 13.4% | Average Relative Light Unit Values ([2]; 0.05% detergent, 222 min): 303.73 rlu | Percent ATP Remaining ([2]; 0.05% detergent, 222 min): 4.9% | Average Relative Light Unit Values ([2]; 0.05% detergent, 260 min): 147.48 rlu | Percent ATP Remaining ([2]; 0.05% detergent, 260 min): 2.4% | Relative ATPase Activity, slope det/slope lysate ([2]; 0.05 percent detergent): 1.228 | Slope (log percent ATP remaining vs time in minutes) ([2]; 0.05 percent detergent): −0.0065 | Average Relative Light Unit Values ([2]; 0.1% detergent, 5 min): 6837.20 rlu | Percent ATP Remaining ([2]; 0.1% detergent, 5 min): 100% | Average Relative Light Unit Values ([2]; 0.1% detergent, 75 min): 3004.57 rlu | Percent ATP Remaining ([2]; 0.1% detergent, 75 min): 43.9% | Average Relative Light Unit Values ([2]; 0.1% detergent, 169 min): 1643.05 rlu | Percent ATP Remaining ([2]; 0.1% detergent, 169 min): 24.0% | Average Relative Light Unit Values ([2]; 0.1% detergent, 222 min): 801.38 rlu | Percent ATP Remaining ([2]; 0.1% detergent, 222 min): 11.7% | Average Relative Light Unit Values ([2]; 0.1% detergent, 260 min): 448.93 rlu | Percent ATP Remaining ([2]; 0.1% detergent, 260 min): 6.6% | Relative ATPase Activity, slope det/slope lysate ([2]; 0.10 percent detergent): 0.889 | Slope (log percent ATP remaining vs time in minutes) ([2]; 0.10 percent detergent): −0.0047 | Average Relative Light Unit Values ([2]; 0.5% detergent, 5 min): 6106.61 rlu | Percent ATP Remaining ([2]; 0.5% detergent, 5 min): 100% | Average Relative Light Unit Values ([2]; 0.5% detergent, 75 min): 1880.98 rlu | Percent ATP Remaining ([2]; 0.5% detergent, 75 min): 30.8% | Average Relative Light Unit Values ([2]; 0.5% detergent, 169 min): 871.01 rlu | Percent ATP Remaining ([2]; 0.5% detergent, 169 min): 14.3% | Average Relative Light Unit Values ([2]; 0.5% detergent, 222 min): 378.58 rlu | Percent ATP Remaining ([2]; 0.5% detergent, 222 min): 6.2% | Average Relative Light Unit Values ([2]; 0.5% detergent, 260 min): 195.42 rlu | Percent ATP Remaining ([2]; 0.5% detergent, 260 min): 3.2% | Relative ATPase Activity, slope det/slope lysate ([2]; 0.50 percent detergent): 1.117 | Slope (log percent ATP remaining vs time in minutes) ([2]; 0.50 percent detergent): −0.0059 | Average Relative Light Unit Values ([2]; 1.0% detergent, 5 min): 6073.78 rlu | Percent ATP Remaining ([2]; 1.0% detergent, 5 min): 100% | Average Relative Light Unit Values ([2]; 1.0% detergent, 75 min): 1774.10 rlu | Percent ATP Remaining ([2]; 1.0% detergent, 75 min): 29.2% | Average Relative Light Unit Values ([2]; 1.0% detergent, 169 min): 839.14 rlu | Percent ATP Remaining ([2]; 1.0% detergent, 169 min): 13.8% | Average Relative Light Unit Values ([2]; 1.0% detergent, 222 min): 331.95 rlu | Percent ATP Remaining ([2]; 1.0% detergent, 222 min): 5.5% | Average Relative Light Unit Values ([2]; 1.0% detergent, 260 min): 174.89 rlu | Percent ATP Remaining ([2]; 1.0% detergent, 260 min): 2.9% | Relative ATPase Activity, slope det/slope lysate ([2]; 1.00 percent detergent): 1.152 | Slope (log percent ATP remaining vs time in minutes) ([2]; 1.00 percent detergent): −0.0061

polyethylene glycol 400 dodecyl ether [THESIT]
Average Relative Light Unit Values ([2]; 0.05% detergent, 5 min): 5632.96 rlu | Percent ATP Remaining ([2]; 0.05% detergent, 5 min): 100% | Average Relative Light Unit Values ([2]; 0.05% detergent, 75 min): 1601.09 rlu | Percent ATP Remaining ([2]; 0.05% detergent, 75 min): 28.4% | Average Relative Light Unit Values ([2]; 0.05% detergent, 169 min): 623.38 rlu | Percent ATP Remaining ([2]; 0.05% detergent, 169 min): 11.1% | Average Relative Light Unit Values ([2]; 0.05% detergent, 222 min): 211.67 rlu | Percent ATP Remaining ([2]; 0.05% detergent, 222 min): 3.8% | Average Relative Light Unit Values ([2]; 0.05% detergent, 260 min): 110.15 rlu | Percent ATP Remaining ([2]; 0.05% detergent, 260 min): 2.0% | Relative ATPase Activity, slope det/slope lysate ([2]; 0.05 percent detergent): 1.295 | Slope (log percent ATP remaining vs time in minutes) ([2]; 0.05 percent detergent): −0.0068 | Average Relative Light Unit Values ([2]; 0.1% detergent, 5 min): 6022.32 rlu | Percent ATP Remaining ([2]; 0.1% detergent, 5 min): 100% | Average Relative Light Unit Values ([2]; 0.1% detergent, 75 min): 2654.97 rlu | Percent ATP Remaining ([2]; 0.1% detergent, 75 min): 44.1% | Average Relative Light Unit Values ([2]; 0.1% detergent, 169 min): 1509.07 rlu | Percent ATP Remaining ([2]; 0.1% detergent, 169 min): 25.1% | Average Relative Light Unit Values ([2]; 0.1% detergent, 222 min): 755.94 rlu | Percent ATP Remaining ([2]; 0.1% detergent, 222 min): 12.6% | Average Relative Light Unit Values ([2]; 0.1% detergent, 260 min): 447.44 rlu | Percent ATP Remaining ([2]; 0.1% detergent, 260 min): 7.4% | Relative ATPase Activity, slope det/slope lysate ([2]; 0.10 percent detergent): 0.850 | Slope (log percent ATP remaining vs time in minutes) ([2]; 0.10 percent detergent): −0.0045 | Average Relative Light Unit Values ([2]; 0.5% detergent, 5 min): 6392.75 rlu | Percent ATP Remaining ([2]; 0.5% detergent, 5 min): 100% | Average Relative Light Unit Values ([2]; 0.5% detergent, 75 min): 2304.48 rlu | Percent ATP Remaining ([2]; 0.5% detergent, 75 min): 36.0% | Average Relative Light Unit Values ([2]; 0.5% detergent, 169 min): 1122.24 rlu | Percent ATP Remaining ([2]; 0.5% detergent, 169 min): 17.6% | Average Relative Light Unit Values ([2]; 0.5% detergent, 222 min): 487.28 rlu | Percent ATP Remaining ([2]; 0.5% detergent, 222 min): 7.6% | Average Relative Light Unit Values ([2]; 0.5% detergent, 260 min): 240.72 rlu | Percent ATP Remaining ([2]; 0.5% detergent, 260 min): 3.8% | Relative ATPase Activity, slope det/slope lysate ([2]; 0.50 percent detergent): 1.065 | Slope (log percent ATP remaining vs time in minutes) ([2]; 0.50 percent detergent): −0.0056 | Average Relative Light Unit Values ([2]; 1.0% detergent, 5 min): 6204.02 rlu | Percent ATP Remaining ([2]; 1.0% detergent, 5 min): 100% | Average Relative Light Unit Values ([2]; 1.0% detergent, 75 min): 1979.43 rlu | Percent ATP Remaining ([2]; 1.0% detergent, 75 min): 31.9% | Average Relative Light Unit Values ([2]; 1.0% detergent, 169 min): 968.14 rlu | Percent ATP Remaining ([2]; 1.0% detergent, 169 min): 15.6% | Average Relative Light Unit Values ([2]; 1.0% detergent, 222 min): 416.45 rlu | Percent ATP Remaining ([2]; 1.0% detergent, 222 min): 6.7% | Average Relative Light Unit Values ([2]; 1.0% detergent, 260 min): 210.78 rlu | Percent ATP Remaining ([2]; 1.0% detergent, 260 min): 3.4% | Relative ATPase Activity, slope det/slope lysate ([2]; 1.00 percent detergent): 1.096 | Slope (log percent ATP remaining vs time in minutes) ([2]; 1.00 percent detergent): −0.0058
